These results are taken from patent US10214491B2, “Activators and therapeutic applications thereof” (THE JOHNS HOPKINS UNIVERSITY, priority 2007, dated 2019).

Structures are written as SMILES. “Also recorded” adds a separate entry of the source.

The test system of series [1] is normal human primary melanocytes. The experiment in a line: WST-1 cell viability assay, melanocytes. Type of series: cell-based. The note with it: Melanocyte, three days. How it is done:
(§1) The effect of the compounds selected using the screening assay on the viability of several tumor cell lines as well as diploid cell lines and cell strains was studied. Cells were plated in 96-well plates at a density of 10,000 cells/100 μL/well and were incubated overnight. The following day compound dilutions ranging from 0 to 40 μM were applied to the cells in triplicate and the cells were incubated with the compounds for three days. Cell viability was assayed using the WST-1 cell proliferation reagent (Roche Diagnostics, Germany) The WST-1 reagent was diluted 1:10 in cell culture media and 100 μL of the reagent dilution was applied onto cells followed by 1 hour incubation at +37° C. The specific absorbance was measured at 450 nm and a reference absorbance was measured at 690 nm. […] Analysis for Protein Levels
(In general: Tetrazolium assays rely on reduction of a dye to a coloured formazan, in cell work by metabolically active cells.)

Series [2] concerns p53DsRed reporter in PG3/9 melanoma cells (A375 clone). Briefly: p53DsRed reporter activation assay (in vitro p53 activity assay). Type of series: cell-based. The note with it: for EC50: Homo sapiens, A-375, PG3/9 melanoma cells, 24 hours, read-out: effective concentration (EC50), p53DsRed reporter activation; for fraction of p53-reporter activated cells at high concentrations: apparently due to excessive cell death. As for the experimental part:
The ability of the compounds to activate p53 was analyzed using a cell-based assay. To establish the assay, a stable cell transfectant expressing a p53-responsive reporter was generated. A375 melanoma cell line (ATCC CRL-1619) was transfected with a vector containing the p53 consensus element 13x repeat (13XRE) (Kern et al., 1991) cloned to a DsRed Express reporter vector (Clontech) to yield the vector “PG13DsRed”, hereafter termed as “p53DsRed”. […] The cell clone PG3/9 was used in the screen.
The assay was carried out in a 96-well format and all plate handlings were done using liquid handling robots (Thermo CRS, Thermo Electron Corporation; Biomek FX, Beckman Coulter and Hamilton STAR, Hamilton Microlab). Cells were plated at 10,000 cells/100 μL/well onto 96-well ViewPlates (Packard) and incubated overnight at +37° C. and 5% CO2. Small molecule compound chemical libraries were purchased and diluted to dimethylsulfoxide (DMSO) at 10 mM concentration. The compounds were pin-transferred to plain media at approximately 3 μM concentration either as single (one compound/one well) or pools of compounds (two compounds/one well). The growth media was removed and replaced with media with the test compounds followed by incubation of the cells for 24 h at +37° C. and 5% CO2. […] Following the incubation, the cells were washed with phosphate buffered saline and fixed with paraformaldehyde (PFA, 4%, 25 min, RT) and cell nuclei were stained with Hoechst 33342 (Molecular Probes, 4 μg/mL, 2 min, RT).
The fluorescence signals of Hoechst 33342 and DsRed reporter expression in the fixed cells were analyzed using ArrayScan 4.5 high-content screening platform (Cellomics) including an inverted microscope (Zeiss 200M) with 10× objective (Zeiss), Omega XF93 filter (Omega), ORCA-AG CCD camera (Hamamatsu). The algorithm used for image acquisition and analysis was Target Activation Bioapplication (Cellomics), which was set to analyse the total number of cells and the percentage of p53 reporter positive cells termed as “responders”. For each well, four images on both fluorescence channels were acquired corresponding to approximately 1700 cells in mock-treated wells. The mean number of responders was calculated for each well, and compounds causing reporter activation for more than two times the mean number of responders in the mock treated cells in each plate were regarded as hits.
In the secondary screen the hits were collected and tested over 100 nM to 10 μM concentration range. The compound treatment time, cell fixations and stainings as well as fluorescence signal detection was as described above. Compounds providing consistent p53DsRed reporter activation at low μM concentration range were selected for further testing. The effective concentration 50 (EC50) was calculated using the following formula: […]

Series [3] deals with RPMI7951 (MUTp53). The experiment in a line: WST-1 cell viability assay, RPMI-7951. Format: cell-based. The note with it: three days. How it is done: as §1
In series [4] the test system is A375 melanoma cells. The experiment in a line: Flow cytometry cell cycle and apoptosis analysis. Type of series: cell-based. The note with it: A375, three days at 10 μM or six days at 5 μM. As for the experimental part:
Cell cycle analysis and cellular apoptosis was assayed with flow cytometry (LSR, Beckton Dickinson). Cells were treated with the compounds and both floating and adherent cells were harvested and fixed in 70% ethanol at −20° C. followed by staining of DNA with propidium iodide. A total of 10,000 counts were collected and data was analysed using ModFit LT 3.1 software. Cells present in sub-G1 population were regarded as apoptotic.

The subject of series [5] is Human intestinal endothelial cells. Briefly: WST-1 cell viability assay, intestinal endothelial cells. Format: cell-based. The conditions noted are these: three days. As for the experimental part:
as §1

The subject of series [6] is WS-1 diploid fibroblast. The experiment in a line: WST-1 cell viability assay, WS-1. The note with it: three days. Format: cell-based, human. As for the experimental part: as §1
In series [7] the test system is p53, Mdm2 and p21 levels in A375 melanoma cells. The experiment in a line: Immunoblotting and immunofluorescence for p53, Mdm2 and p21 levels. Format: cell-based. The conditions noted are these: A375, 24 hours, 5 μM. How it is done:
To study the effect of compounds on endogenous protein levels, A375 melanoma cells were treated with the compounds for 24 hours. Cellular lysates were prepared in lysis buffer containing 0.5% NP-40 with proteinase inhibitors. Protein (20-30 μg) was separated by sodium dodecyl sulphate-polyacrylamide gel electrophoresis (SDS-PAGE) followed by transfer to PVDF membrane (Immobilon™-P, Millipore, Bedford, Mass., USA). Immunoblotting was carried out using DO-1 antibody for p53, 2A10 for Mdm2 and anti-p21 (Becton Dickinson) to detect p21, followed by secondary antibodies conjugated with horseradish peroxidase (p53) or biotin followed by streptavidin-horseradish peroxidase (Mdm2 and p21) after which proteins were detected with enhanced chemiluminescence (ECL, Amersham Life Sciences). Equal protein loading was verified using GAPDH (p9.B.88, Europa Bioproducts Ltd, UK) as a protein loading control.
(§2) Immunofluorescence staining was carried out to determine the correct localisation of p53 and to detect H2AX phosphorylation indicative of genotoxic stress. Cells were treated with the compounds and fixed in paraformaldehyde (3.5 PFA, 25 min RT). The coverslips were permeabilised in 0.5% NP-40 and blocked in 3% bovine serum albumin (BSA). p53 was detected by staining with FL-393 antibody (Santa Cruz, 1:50, 1 h at +37° C.) followed by Alexa-594 conjugated secondary antibody (Molecular Probes, 1:200, 1 h at +37° C.), phospho-H2AX was detected by staining with anti-H2AX (P-Ser-139) antibody (Upstate, 1:200 1 h at +37° C.) followed by Alexa-488 conjugated secondary antibody (Molecular Probes, 1:200, 1 h at +37° C.). Nuclei were stained with Hoechst 33342. Images were captured using the Zeiss Axioplan fluorescence microscope equipped with Zeiss AxioCam HRc CCD-camera and AxioVision 4.5 software using 40×, NA=0,75 objective, Chroma 31000, Chroma41001 and 41004 filters for Hoechst, Alexa488 and Alexa594, respectively.

Series [8] concerns A375 melanoma (WTp53). The experiment in a line: WST-1 cell viability assay, A375. Format: cell-based. The conditions noted are these: for IC50: A375 melanoma (WTp53), three days, WST-1. How it is done:
as §1

The test system of series [9] is phosphorylation of histone H2AX on serine-139 (γH2AX) in A375 melanoma cells. Briefly: Phospho-H2AX immunofluorescence (genotoxic stress). Type of series: cell-based. The conditions noted are these: A375, 5 μM, 24 hours. As for the experimental part:
as §2

Series [10] can be described thus: In vivo toxicity tests. The conditions noted are these: mice; for acute or chronic toxicities based on histological HE-stainings: i.p., 5, 10 and 20 mg/kg three times a week for three weeks; for toxicity by weight curves, macroscopical pathologies, hematoxylin-eosin staining of tissues: i.p., 5, 10 and 20 mg/kg, 9 doses/3 weeks. As for the experimental part: Acute and chronic toxicity of the compounds was tested on FVB/N mice. Female mice of 4-6 weeks old were purchased from Harlan and 2 animals were used per compound dose. The mice were injected intraperitoneally with the compounds three times a week for three weeks in 30 microL DMSO. Two animals received vehicle only (=30 μL DMSO). The animals were weighed prior to injections and were monitored for any signs of toxicity, distress or unusual behaviour. The animals were sacrificed three days after receiving the final injection. The liver, kidney, spleen, small intestine and thymus were excised and fixed in 4% paraformaldehyde overnight, and processed into paraffin-blocks. Haematoxylin-eosin staining (HE staining) of the tissues was performed using standard immunohistological techniques.

Series [11] relates to BC3-luc pleural effusion lymphoma cells. The experiment in a line: Orthotopic xenograft model of pleural effusion lymphoma. Type of series: in vivo. The note with it: NOD-SCID mice, 20 mg/kg i.p. seven times. As for the experimental part: An orthotopic xenograft model of pleural effusion lymphoma was used to assess the anti-tumor activities of compounds 15, 21 and 22. Female NOD-SCID mice (Charles River, France) were injected intraperitoneally with pleural effusion lymphoma cells carrying a stable NF-kappaB regulated luciferase reporter (BC3-luc cells) (Keller et al., 2006). The tumors were allowed to establish for three days after which the mice were imaged and divided into treatment (groups 4-5 mice per group). The compound treatments were initiated on day four. The mice received 2 mg/kg (cmp21) or 20 mg/kg (cmp15 and 22) every other/third day for seven times via i.p. injections, control mice received DMSO only. The mice were imaged prior to each compound injection. Imaging was carried out with Xenogen In Vivo Imaging System (IVIS), D-luciferin (Synchem OHG, Germany) was injected intraperitoneally (100 mg/kg) 10-15 min prior to each imaging. Quantitation was done using Igor Pro Carbon analysis software, bioluminescence was quantitated and plotted as total flux within a given ROI.

Series [12] relates to B-cell lymphoma (Kaposi's sarcoma herpes virus-infected pleural effusion lymphoma) cells. The note with it: cited from earlier work.

Turning to `COc1cccc2c(N)c3c(cnn3C)nc12` [Compound 1, 5-methoxy-1-methylH-pyrazolo[4,3-b]quinolin-9-amine], the IC50 (in general, the concentration that gives 50% inhibition) worked out at 30.4 µM in series [1] (Homo sapiens, 72 h); 14.7 µM in series [3] (Homo sapiens, RPMI-7951, 72 h); 13.1 µM in series [5] (Endothelial cell, 72 h); 10.4 µM in series [6] (Homo sapiens, 72 h); 4.3 µM in series [8] (Homo sapiens, A-375, 72 h). Also, the EC50 in [2] was 3.3 µM. Moreover, the “fraction of p53-reporter activated cells at high concentrations” value in series [2] is reported as “decrease in the fraction of p53-reporter activated cells”. Moreover, the “cell cycle / apoptosis phenotype” value in series [4] was “G2-phase arrest and apoptosis”. Moreover, the Mdm2 induction result in [7] is on record as “most prominent”. The “fold difference IC50 (A375)/ IC50 (WS-1)” value in series [8] (A375 melanoma versus WS-1 normal cells) came out at 2.4 fold.
With `CN(C)CCCNc1nn2c(=O)c3ccccc3nc2c2ccccc12` [Compound 7], the IC50 in [1] (Homo sapiens, 72 h) amounted to 32.4 µM; in [3] (Homo sapiens, RPMI-7951, 72 h), 16.8 µM; in series [5] (Endothelial cell, 72 h), 19.6 µM; in series [6] (Homo sapiens, 72 h) it was 18.1 µM; in series [8] (Homo sapiens, A-375, 72 h) it was 3 µM. Further, the EC50 in series [2] was 6.6 µM. Further, in [9], the “cellular γH2AX response (genotoxic stress)” value is on record as “induces genotoxic stress; also recorded: induced a cellular γH2AX response”. The “cell cycle / apoptosis phenotype” value in [4] is “imminent G2-phase arrest and increased the apoptotic fraction of the cells”. In series [10], the “acute or chronic toxicities based on histological HE-stainings” value is reported as “No acute or chronic toxicities were observed”. For the same compound, the “toxicity by weight curves, macroscopical pathologies, hematoxylin-eosin staining of tissues” value in [10] is given as “did not show any apparent toxicity”.
As for `CCOC(=O)c1cnc2c(C)cc(C)cc2c1NCCCN(C)C` [Compound 9, ethyl 4-(3-dimethylaminopropylamino)-6,8-dimethyl-quinoline-3-carboxylate], the IC50 in [1] (Homo sapiens, 72 h) was over 40 µM; in series [3] (Homo sapiens, RPMI-7951, 72 h), 17.8 µM; in series [5] (Endothelial cell, 72 h) it was 19.6 µM; in [6] (Homo sapiens, 72 h), 15.7 µM; in series [8] (Homo sapiens, A-375, 72 h), 6.1 µM. For the same compound, in series [2], the EC50 was determined as 4.6 µM. In [4], the “cell cycle / apoptosis phenotype” value is recorded as “G1-phase arrest”. Besides, in [7], the Mdm2 induction entry was “most prominent”. The “acute or chronic toxicities based on histological HE-stainings” value in series [10] is “No acute or chronic toxicities were observed”. Moreover, the “toxicity by weight curves, macroscopical pathologies, hematoxylin-eosin staining of tissues” value in [10] is “did not show any apparent toxicity”.
Turning to `Cc1sc2nc3c4ccccc4c(NCCCN(C)C)nn3c(=O)c2c1C` [Compound 15], the EC50 in series [2] was found to be 5.4 µM. Besides, the “cellular γH2AX response (genotoxic stress)” value in series [9] is listed as “induces genotoxic stress; also recorded: induced a cellular γH2AX response”. For the same compound, in series [11], the “inhibition of tumor cell growth (bioluminescence)” value was “noticeable inhibition of the tumor cell growth”. Moreover, in series [10], the “acute or chronic toxicities based on histological HE-stainings” value is “No acute or chronic toxicities were observed” and the “toxicity by weight curves, macroscopical pathologies, hematoxylin-eosin staining of tissues” value was “did not show any apparent toxicity”.
For `CCOc1ccc(C2=CC(c3cc(OC)c(OC)c(OC)c3)n3ncnc3N2)cc1` (stereo not drawn) [Compound 20, 5-(4-ethoxyphenyl)-7-(3,4,5-trimethoxyphenyl)-4,7-dihydro-[1,2,4]triazolo[1,5-α]pyrimidine], in series [2], the EC50 came out at 0.6 µM.
`Cc1cc(C)c2c(N)c3cccc(C)c3nc2n1` [Compound 23, 2,4,9-trimethylbenzo[b]-1,8-naphthyridin-5-amine]: in series [2], the EC50 turned out to be 2.1 µM and the “fraction of p53-reporter activated cells at high concentrations” value is “decrease in the fraction of p53-reporter activated cells”.
In the case of `COc1ccc(C2=N[C@@H](c3ccc(Cl)cc3)[C@@H](c3ccc(Cl)cc3)N2C(=O)N2CCNC(=O)C2)c(OC(C)C)c1` [Nutlin, nutlin-3a, reference compound], the IC50 was over 40 µM in series [1]; over 40 µM in series [3]; 10.7 µM in series [5]; 20.6 µM in [6]; 7.2 µM in [8]. The “B-cell lymphoma cell killing” value in series [12] (in vitro and in vivo mouse models) was “highly effective agent inducing B-cell lymphoma”. Further, in [12] (mouse), the adverse side-effects entry is “does not cause any adverse side-effects”.
